The text below walks through data of ChEMBL document CHEMBL1140833, “Potent heteroarylpiperidine and carboxyphenylpiperidine 1-alkyl-cyclopentane carboxamide CCR2 antagonists” (Bioorg Med Chem Lett, 2008).

Chain of C-C chemokine receptor type 2 (P41597 whole entry): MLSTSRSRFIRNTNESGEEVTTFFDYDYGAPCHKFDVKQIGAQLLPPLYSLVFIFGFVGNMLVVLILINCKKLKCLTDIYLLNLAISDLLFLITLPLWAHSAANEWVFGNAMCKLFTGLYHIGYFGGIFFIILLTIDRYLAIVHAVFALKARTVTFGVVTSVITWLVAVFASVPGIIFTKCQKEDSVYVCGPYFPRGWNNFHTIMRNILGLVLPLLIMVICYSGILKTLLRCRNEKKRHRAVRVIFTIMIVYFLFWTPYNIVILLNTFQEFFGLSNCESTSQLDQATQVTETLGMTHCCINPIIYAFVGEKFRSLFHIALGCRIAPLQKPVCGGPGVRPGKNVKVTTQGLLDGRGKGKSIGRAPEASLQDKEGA
Chain of Voltage-gated inwardly rectifying potassium channel KCNH2 (Q12809 whole entry): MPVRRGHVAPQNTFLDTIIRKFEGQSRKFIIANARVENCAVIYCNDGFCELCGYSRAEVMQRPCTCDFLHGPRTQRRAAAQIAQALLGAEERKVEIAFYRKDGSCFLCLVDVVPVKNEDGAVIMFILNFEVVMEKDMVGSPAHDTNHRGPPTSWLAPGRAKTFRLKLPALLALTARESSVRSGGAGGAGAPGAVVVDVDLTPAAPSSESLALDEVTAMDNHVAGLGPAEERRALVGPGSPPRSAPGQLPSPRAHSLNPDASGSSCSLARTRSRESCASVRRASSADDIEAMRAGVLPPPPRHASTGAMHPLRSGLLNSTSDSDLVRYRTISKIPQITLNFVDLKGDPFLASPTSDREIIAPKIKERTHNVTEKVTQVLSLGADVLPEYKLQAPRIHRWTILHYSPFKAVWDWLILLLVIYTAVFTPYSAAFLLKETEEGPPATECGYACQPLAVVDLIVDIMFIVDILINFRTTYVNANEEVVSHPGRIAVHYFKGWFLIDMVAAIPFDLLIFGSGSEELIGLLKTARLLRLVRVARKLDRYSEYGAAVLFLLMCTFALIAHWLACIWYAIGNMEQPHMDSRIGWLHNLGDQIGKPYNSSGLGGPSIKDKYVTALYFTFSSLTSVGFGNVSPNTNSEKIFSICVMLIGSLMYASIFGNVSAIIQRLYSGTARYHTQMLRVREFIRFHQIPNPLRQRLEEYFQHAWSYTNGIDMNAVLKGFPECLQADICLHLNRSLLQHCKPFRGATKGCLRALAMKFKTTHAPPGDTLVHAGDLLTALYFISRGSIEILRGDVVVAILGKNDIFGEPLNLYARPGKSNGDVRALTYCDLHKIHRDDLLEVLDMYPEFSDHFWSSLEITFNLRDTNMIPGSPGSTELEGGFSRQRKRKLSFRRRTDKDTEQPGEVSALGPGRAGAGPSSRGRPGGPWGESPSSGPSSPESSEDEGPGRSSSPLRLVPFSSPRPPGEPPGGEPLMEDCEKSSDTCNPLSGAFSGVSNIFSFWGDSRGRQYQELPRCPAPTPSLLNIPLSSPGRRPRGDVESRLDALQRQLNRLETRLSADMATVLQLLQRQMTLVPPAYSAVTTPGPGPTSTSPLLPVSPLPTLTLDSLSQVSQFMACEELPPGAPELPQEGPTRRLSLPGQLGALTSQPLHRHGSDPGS

Test system in one series: not listed separately
Briefly: Clearance in rat at 3 mg/kg, po. The series is classed as ADME, organism-based. Also noted: dose 3 mg/kg, route oral. The following applies: in vivo.
As usually defined, the CL/F is clearance divided by bioavailability, as obtained after extravascular dosing. `CC(C)[C@]1(C(=O)NCc2cc(C(F)(F)F)cc(C(F)(F)F)c2)CC[C@@H](N2CCC(c3cncnc3)CC2)C1` (relative stereo) displayed a CL/F of 7 mL/min/kg.

A further series addresses Voltage-gated inwardly rectifying potassium channel KCNH2 (Homo sapiens, UniProt Q12809). Briefly: Displacement of [[…]]MK499 from human ERG expressed in HEK cells. The format is cell-based, HEK293.
Settings: not given
Broadly, the IC50 is the concentration that inhibits the measured activity by half. `CC(C)[C@]1(C(=O)NCc2cc(C(F)(F)F)cc(C(F)(F)F)c2)CC[C@@H](N2CCC(c3cccc(C(=O)O)c3)CC2)C1` came in with an IC50 of 2.79 µM.

The compound `CC(C)[C@]1(C(=O)NCc2cc(C(F)(F)F)cc(C(F)(F)F)c2)CC[C@@H](N2CCC(c3ccc(F)cc3)CC2)C1` showed an IC50 of 0.016 µM.

Take `CC(C)(O)[C@]1(C(=O)NCc2cc(C(F)(F)F)cc(C(F)(F)F)c2)CC[C@@H](N2CCC(c3ccc(F)cc3)CC2)C1`: the half-maximal inhibitory concentration (IC50) was determined as 0.054 µM.

`CC(C)[C@]1(C(=O)NCc2cc(C(F)(F)F)cc(C(F)(F)F)c2)CC[C@@H](N2CCC(c3cccc(O)c3)CC2)C1` (single isomer, unassigned) came in with an IC50 of 0.067 µM.

The compound `CC(C)[C@]1(C(=O)NCc2cc(C(F)(F)F)cc(C(F)(F)F)c2)CC[C@@H](N2CCC(c3cccc(C(=O)O)c3)CC2)C1` (single isomer, unassigned) showed an IC50 of 0.6 µM.

Take `CC(C)[C@]1(C(=O)NCc2cc(C(F)(F)F)cc(C(F)(F)F)c2)CC[C@@H](N2CCC(c3ccncn3)CC2)C1` (single isomer, unassigned): the IC50 was 0.13 µM.

The compound `COc1cccc(C2CCN([C@@H]3CC[C@@](C(=O)NCc4cc(C(F)(F)F)cc(C(F)(F)F)c4)(C(C)C)C3)CC2)c1` (single isomer, unassigned) had a half-inhibitory concentration (IC50) of 0.217 µM.

Another series deals with C-C chemokine receptor type 5 (Homo sapiens) (UniProt P51681). Description: Inhibition of CCR5 at 1 uM. Also noted: scale not given: the % may be the effect or the level left.
Chain of C-C chemokine receptor type 5 (Homo sapiens) (P51681 whole entry, looked up): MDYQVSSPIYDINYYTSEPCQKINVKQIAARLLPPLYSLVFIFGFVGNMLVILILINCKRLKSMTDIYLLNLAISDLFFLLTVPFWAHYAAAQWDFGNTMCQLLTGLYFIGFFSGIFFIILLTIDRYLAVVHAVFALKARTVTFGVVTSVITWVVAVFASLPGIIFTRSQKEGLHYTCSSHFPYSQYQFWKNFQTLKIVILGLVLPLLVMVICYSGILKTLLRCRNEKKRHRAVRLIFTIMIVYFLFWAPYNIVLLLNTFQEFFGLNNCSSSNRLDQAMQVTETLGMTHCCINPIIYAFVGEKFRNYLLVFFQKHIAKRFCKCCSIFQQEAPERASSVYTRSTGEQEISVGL
Settings: not given
Consider `CC(C)[C@]1(C(=O)NCc2cc(C(F)(F)F)cc(C(F)(F)F)c2)CC[C@@H](N2CCC(c3ccc(F)cc3)CC2)C1`, for which the Activity was 69%.

In the case of `CC(C)(O)[C@]1(C(=O)NCc2cc(C(F)(F)F)cc(C(F)(F)F)c2)CC[C@@H](N2CCC(c3ccc(F)cc3)CC2)C1`, the Activity was determined as 69%.

Compound `CC(C)(O)[C@]1(C(=O)NCc2cc(C(F)(F)F)cc(C(F)(F)F)c2)CC[C@@H](N2CCC(c3cncnc3)CC2)C1` registered an Activity of 3%.

Regarding `CC(C)[C@]1(C(=O)NCc2cc(C(F)(F)F)cc(C(F)(F)F)c2)CC[C@@H](N2CCC(c3cncnc3)CC2)C1` [listing 1 of 2 here], the Activity was 3%.

Test system in the next series: not listed separately
Description: Oral bioavailability in rat at 3 mg/kg. The series is classed as ADME, organism-based. Particulars: in vivo.
The bioavailability is dose-corrected exposure relative to a reference, in per cent. As for `CC(C)[C@]1(C(=O)NCc2cc(C(F)(F)F)cc(C(F)(F)F)c2)CC[C@@H](N2CCC(c3cncnc3)CC2)C1` (relative stereo), the bioavailability was 33%.

Test system in another series: not listed separately
Description: Half life in rat at 3 mg/kg, po. The format is ADME, organism-based. Also noted: dose 3 mg/kg, route oral. The following applies: in vivo.
As a reminder, the half-life is the time in which the quantity being followed falls by half. For the compound `CC(C)[C@]1(C(=O)NCc2cc(C(F)(F)F)cc(C(F)(F)F)c2)CC[C@@H](N2CCC(c3cncnc3)CC2)C1` (relative stereo), the half-life was 3.8 h.

A further series concerns the target C-C chemokine receptor type 2 (Homo sapiens, UniProt P41597). Briefly: Displacement of [125I]MCP1 from CCR2 receptor in human monocytes. The series is classed as cell-based.
Settings: not given
On the technique in general: Loss of bound radioactivity is the signal in a displacement assay; it reports binding, not function.
For the compound `CC(C)[C@]1(C(=O)NCc2cc(C(F)(F)F)cc(C(F)(F)F)c2)CC[C@@H](N2CCC(c3cccc(C(=O)O)c3)CC2)C1`, the IC50 came out at 0.062 µM.

The compound `CC(C)[C@]1(C(=O)NCc2cc(C(F)(F)F)cc(C(F)(F)F)c2)CC[C@@H](N2CCC(c3cncnc3)CC2)C1` [listing 2 of 2 here] showed a half-maximal inhibitory concentration (IC50) of 0.005 µM.

Take `CC(C)[C@]1(C(=O)NCc2cc(C(F)(F)F)cc(C(F)(F)F)c2)CC[C@@H](N2CCC(c3ccc(F)cc3)CC2)C1`: the IC50 was determined as 0.003 µM.

The compound `CC(C)(O)[C@]1(C(=O)NCc2cc(C(F)(F)F)cc(C(F)(F)F)c2)CC[C@@H](N2CCC(c3ccc(F)cc3)CC2)C1` displayed an IC50 of 0.0013 µM.

`CC(C)(O)[C@]1(C(=O)NCc2cc(C(F)(F)F)cc(C(F)(F)F)c2)CC[C@@H](N2CCC(c3cncnc3)CC2)C1` gave an IC50 of 0.006 µM.

In turn, `CC(C)[C@]1(C(=O)NCc2cc(C(F)(F)F)cc(C(F)(F)F)c2)CC[C@@H](N2CCC(c3cccnc3)CC2)C1` (relative stereo) had an IC50 of 0.006 µM.

`CC(C)[C@]1(C(=O)NCc2cc(C(F)(F)F)cc(C(F)(F)F)c2)CC[C@@H](N2CCC(c3cncnc3)CC2)C1` (relative stereo) came in with an IC50 of 0.012 µM.

`CC(C)[C@]1(C(=O)NCc2cc(C(F)(F)F)cc(C(F)(F)F)c2)CC[C@@H](N2CCC(c3cccc(O)c3)CC2)C1` (single isomer, unassigned) registered an IC50 of 0.006 µM.

Compound `CC(C)[C@]1(C(=O)NCc2cc(C(F)(F)F)cc(C(F)(F)F)c2)CC[C@@H](N2CCC(c3cccc(C(=O)O)c3)CC2)C1` (single isomer, unassigned) returned an IC50 of 0.041 µM.

For the compound `CC(C)[C@]1(C(=O)NCc2cc(C(F)(F)F)cc(C(F)(F)F)c2)CC[C@@H](N2CCC(c3ccncn3)CC2)C1` (single isomer, unassigned), the IC50 turned out to be 0.044 µM.

`CC(C)[C@]1(C(=O)NCc2cc(C(F)(F)F)cc(C(F)(F)F)c2)CC[C@@H](N2CCC(c3ccc(Cl)nn3)CC2)C1` (single isomer, unassigned) had an IC50 of 0.165 µM.

Regarding `CC(C)[C@]1(C(=O)NCc2cc(C(F)(F)F)cc(C(F)(F)F)c2)CC[C@@H](N2CCC(c3cccnn3)CC2)C1` (single isomer, unassigned), the IC50 was 0.05 µM.

Turning to `CC(C)[C@]1(C(=O)NCc2cc(C(F)(F)F)cc(C(F)(F)F)c2)CC[C@@H](N2CCC(c3cccc(F)c3)CC2)C1` (single isomer, unassigned), the IC50 was found to be 0.004 µM.

Regarding `CC(C)[C@]1(C(=O)NCc2cc(C(F)(F)F)cc(C(F)(F)F)c2)CC[C@@H](N2CCC(c3ccnnc3)CC2)C1` (single isomer, unassigned), the IC50 worked out at 0.064 µM.

In the case of `CC(C)[C@]1(C(=O)NCc2cc(C(F)(F)F)cc(C(F)(F)F)c2)CC[C@@H](N2CCC(c3ncccn3)CC2)C1` (single isomer, unassigned), the IC50 is 0.144 µM.

`COc1cccc(C2CCN([C@@H]3CC[C@@](C(=O)NCc4cc(C(F)(F)F)cc(C(F)(F)F)c4)(C(C)C)C3)CC2)c1` (single isomer, unassigned): the IC50 came out at 0.006 µM.

Test system in another series: not listed separately
Briefly: Selectivity for human CCR2 over IKr.
Settings: not given
Consider `CC(C)[C@]1(C(=O)NCc2cc(C(F)(F)F)cc(C(F)(F)F)c2)CC[C@@H](N2CCC(c3cccc(C(=O)O)c3)CC2)C1`, for which the IKr IC50/CCR2 IC50 ratio amounted to 45.

On to `CC(C)[C@]1(C(=O)NCc2cc(C(F)(F)F)cc(C(F)(F)F)c2)CC[C@@H](N2CCC(c3ccc(F)cc3)CC2)C1`, for which the IKr IC50/CCR2 IC50 ratio was determined as 5.

On to `CC(C)(O)[C@]1(C(=O)NCc2cc(C(F)(F)F)cc(C(F)(F)F)c2)CC[C@@H](N2CCC(c3ccc(F)cc3)CC2)C1`, for which the IKr IC50/CCR2 IC50 ratio was 42.

As to `CC(C)[C@]1(C(=O)NCc2cc(C(F)(F)F)cc(C(F)(F)F)c2)CC[C@@H](N2CCC(c3cccc(O)c3)CC2)C1` (single isomer, unassigned), the IKr IC50/CCR2 IC50 ratio worked out at 11.

Consider `CC(C)[C@]1(C(=O)NCc2cc(C(F)(F)F)cc(C(F)(F)F)c2)CC[C@@H](N2CCC(c3cccc(C(=O)O)c3)CC2)C1` (single isomer, unassigned), for which the IKr IC50/CCR2 IC50 ratio is 15.

As to `CC(C)[C@]1(C(=O)NCc2cc(C(F)(F)F)cc(C(F)(F)F)c2)CC[C@@H](N2CCC(c3ccncn3)CC2)C1` (single isomer, unassigned), the IKr IC50/CCR2 IC50 ratio amounted to 3.

Turning to `COc1cccc(C2CCN([C@@H]3CC[C@@](C(=O)NCc4cc(C(F)(F)F)cc(C(F)(F)F)c4)(C(C)C)C3)CC2)c1` (single isomer, unassigned), the IKr IC50/CCR2 IC50 ratio came to 36.
